Data as given in US20220204497A1, “NOVEL COMPOUND HAVING ANTICANCER ACTIVITY, AND METHOD FOR PRODUCING SAME” (MEDICINAL BIOCONVERGENCE RESEARCH CENTER, priority 2019, published 2022).

Each compound was assayed on A549 cells (assay: Cell viability by MTT method in A549 cells). Conditions: 72 hours treatment.
Assay type: cell-based
Design: concentration or dose not given beside the values
In the case of `Cc1ccc(S(=O)(=O)N[C@@H](CC(C)C)C(=O)N2CCOCC2)cc1` [Compound 1, (S)-4-methyl-N-(4-methyl-1-morpholino-1-oxopentan-2-yl)benzenesulfonamide], the “Cell Viability (% inhibition) (A549)” value is reported as 17.79%. `Cc1ccc(S(=O)(=O)N[C@H](CC(C)C)C(=O)N2CCOCC2)cc1` [Compound 2, (R)-4-methyl-N-(4-methyl-1-morpholino-1-oxopentan-2-yl)benzenesulfonamide] was tested, and the “Cell Viability (% inhibition) (A549)” value was 29.46%. `Cc1ccc(S(=O)(=O)N[C@@H](CC(C)C)C(=O)Nc2ccc(N3CCCCC3)cc2)cc1` [Compound 7, (S)-4-methyl-2-(4-methylphenylsulfonamido)-N-(4-(piperidin-1-yl)phenyl)pentanamide] was tested, and the “Cell Viability (% inhibition) (A549)” value was 23.48%. For `Cc1ccc(S(=O)(=O)N[C@@H](CC(C)C)C(=O)Nc2ccc(N3CCC(C)CC3)cc2)cc1` [Compound 8, (S)-4-methyl-2-(4-methylphenylsulfonamido)-N-(4-(4-methylpiperidin-1-yl)phenyl) pentanamide], the “Cell Viability (% inhibition) (A549)” value was 24.89%. `Cc1ccc(S(=O)(=O)N[C@@H](CC(C)C)C(=O)Nc2ccc(N3CCOCC3)cc2)cc1` [Compound 11, (S)-4-methyl-2-(4-methylphenylsulfonamido)-N-(4-morpholinophenyl)pentanamide] was tested, and the “Cell Viability (% inhibition) (A549)” value was 23.76%. `Cc1ccc(S(=O)(=O)N[C@@H](CC(C)C)C(=O)Nc2ccc(N3CCS(=O)(=O)CC3)cc2)cc1` [Compound 15, (S)—N-(4-(1,1-dioxidothiomorpholino)phenyl)-4-methyl-2-(4-methylphenylsulfonamido)pentanamide] was tested, and the “Cell Viability (% inhibition) (A549)” value was 4.86 ± 8.75%. `Cc1ccc(S(=O)(=O)N[C@@H](CC(C)C)C(=O)Nc2ccc(N3CCCC3)cc2)cc1` [Compound 17, (S)-4-methyl-2-(4-methylphenylsulfonamido)-N-(4-(pyrrolidin-1-yl)phenyl)pentanamide] was tested, and the “Cell Viability (% inhibition) (A549)” value was 20.11%. For `CC(C)C[C@H](NS(=O)(=O)c1ccc(F)cc1)C(=O)Nc1ccc(N2CCOCC2)cc1` [Compound 21, (S)-2-(4-fluorophenylsulfonamido)-4-methyl-N-(4-morpholinophenyl)pentanamide], the “Cell Viability (% inhibition) (A549)” value was 33.04%. In the case of `CC(C)C[C@H](NS(=O)(=O)c1ccc(Br)cc1)C(=O)Nc1ccc(N2CCOCC2)cc1` [Compound 22, (S)-2-(4-bromophenylsulfonamido)-4-methyl-N-(4-morpholinophenyl)pentanamide], the “Cell Viability (% inhibition) (A549)” value is reported as 39.56 ± 5.42%. For `CC(C)C[C@H](NS(=O)(=O)c1ccccc1)C(=O)Nc1ccc(N2CCOCC2)cc1` [Compound 27, (S)-4-methyl-N-(4-morpholinophenyl)-2-(phenylsulfonamido)pentanamide], the “Cell Viability (% inhibition) (A549)” value was 13.51 ± 9.40%. With `COc1ccc(S(=O)(=O)N[C@@H](CC(C)C)C(=O)Nc2ccc(N3CCOCC3)cc2)cc1` [Compound 29, (S)-2-(4-methoxyphenylsulfonamido)-4-methyl-N-(4-morpholinophenyl)pentanamide] the “Cell Viability (% inhibition) (A549)” value was 12.70 ± 4.95%. With `CC(C)C[C@H](NS(=O)(=O)c1ccc([N+](=O)[O-])cc1)C(=O)Nc1ccc(N2CCOCC2)cc1` [Compound 31, (S)-4-methyl-N-(4-morpholinophenyl)-2-(4-nitrophenylsulfonamido)pentanamide] the “Cell Viability (% inhibition) (A549)” value was 33.24 ± 4.95%. For `CC(C)C[C@H](NS(=O)(=O)c1ccc(-c2ccccc2)cc1)C(=O)Nc1ccc(N2CCOCC2)cc1` [Compound 33, (S)-2-(biphenyl-4-ylsulfonamido)-4-methyl-N-(4-morpholinophenyl)pentanamide], the “Cell Viability (% inhibition) (A549)” value was 26.48 ± 3.66%. `Cc1ccc(S(=O)(=O)N[C@@H](C)C(=O)Nc2ccc(N3CCOCC3)cc2)cc1` [Compound 44, (S)-2-(4-methylphenylsulfonamido)-N-(4-morpholinophenyl)propanamide] was tested, and the “Cell Viability (% inhibition) (A549)” value was 14.05 ± 4.05%. With `CSCC[C@H](NS(=O)(=O)c1ccc(C)cc1)C(=O)Nc1ccc(N2CCOCC2)cc1` [Compound 45, (S)-2-(4-methylphenylsulfonamido)-4-(methylthio)-N-(4-morpholinophenyl)butanamide] the “Cell Viability (% inhibition) (A549)” value was 12.97 ± 1.24%. For `Cc1ccc(S(=O)(=O)N[C@@H](Cc2ccccc2)C(=O)Nc2ccc(N3CCOCC3)cc2)cc1` [Compound 48, (S)-2-(4-methylphenylsulfonamido)-N-(4-morpholinophenyl)-3-phenylpropanamide], the “Cell Viability (% inhibition) (A549)” value was 45.68 ± 2.92%. With `COc1ccc(-c2csc(NC(=O)[C@H](Cc3c[nH]c4ccccc34)NS(=O)(=O)c3ccc(Br)cc3)n2)cc1` [Compound 62, (S)-2-(4-Bromophenylsulfonamido)-3-(1H-indol-3-yl)-N-(4-(4-methoxyphenyl)thiazol-2-yl)propanamide] the “Cell Viability (% inhibition) (A549)” value was 90.17 ± 0.96%. In the case of `Cc1ccccc1S(=O)(=O)N[C@@H](Cc1c[nH]c2ccccc12)C(=O)Nc1ccc(N2CCOCC2)cc1` [Compound 64, (S)-3-(1H-indol-3-yl)-2-(2-methylphenylsulfonamido)-N-(4-morpholinophenyl)propanamide], the “Cell Viability (% inhibition) (A549)” value is reported as 51.75 ± 1.56%. For `Cc1cccc(S(=O)(=O)N[C@@H](Cc2c[nH]c3ccccc23)C(=O)Nc2ccc(N3CCOCC3)cc2)c1` [Compound 65, (S)-3-(1H-indol-3-yl)-2-(3-methylphenylsulfonamido)-N-(4-morpholinophenyl)propanamide], the “Cell Viability (% inhibition) (A549)” value was 74.94 ± 1.04%. With `Cc1ccc(S(=O)(=O)N[C@H](Cc2c[nH]c3ccccc23)C(=O)Nc2ccc(N3CCOCC3)cc2)cc1` [Compound 76, (R)-3-(1H-indol-3-yl)-2-(4-methylphenylsulfonamido)-N-(4-morpholinophenyl)propanamide] the “Cell Viability (% inhibition) (A549)” value was 63.47 ± 0.82%. In the case of `COC[C@H](C)Oc1ccc(-c2csc(NC(=O)[C@H](CC(C)C)NS(=O)(=O)c3ccc(C)cc3)n2)cc1` [Compound 98, (S)—N-(4-(4((S)-1-methoxypropan-2-yloxy)phenyl)thiazol-2-yl)-4-methyl-2-(4-methylphenylsulfonamido)pentanamide], the “Cell Viability (% inhibition) (A549)” value is reported as 76.55 ± 1.52%. With `Cc1ccc(S(=O)(=O)N[C@@H](CC(C)C)C(=O)Nc2nc(-c3ccc(N4CCOCC4)cc3)cs2)cc1` [Compound 99, (S)-4-Methyl-2-(4-methylphenylsulfonamido)-N-(4-(4-morpholinophenyl)thiazol-2-yl)pentanamide] the “Cell Viability (% inhibition) (A549)” value was 73.11 ± 3.83%. With `COC(=O)c1ccc(-c2csc(NC(=O)[C@H](CC(C)C)NS(=O)(=O)c3ccc(C)cc3)n2)cc1` [Compound 100, (S)-Methyl 4-(2-(4-methyl-2-(4-methylphenylsulfonamido)pentanamido)thiazol-4-yl)benzoate] the “Cell Viability (% inhibition) (A549)” value was 79.24 ± 1%. In the case of `COc1ccc(-c2csc(NC(=O)[C@H](Cc3c[nH]c4ccccc34)NS(=O)(=O)c3ccc(Br)cc3)n2)c(OC)c1` [Compound 108, (S)-2-(4-Bromophenylsulfonamido)-N-(4-(2,4-dimethoxyphenyl)thiazol-2-yl)-3-(1H-indol-3-yl)propanamide], the “Cell Viability (% inhibition) (A549)” value is reported as 9.05 ± 7.51%. With `Cc1ccc(S(=O)(=O)N[C@@H](Cc2cn(C=O)c3ccccc23)C(=O)Nc2ccc(N3CCOCC3)cc2)cc1` [Compound 125, (S)-3-(1-Formyl-1H-indol-3-yl)-2-(4-methylphenylsulfonamido)-N-(4-morpholinophenyl)propanamide] the “Cell Viability (% inhibition) (A549)” value was 49.76 ± 2.98%. `COc1ccc(-c2cc(NC(=O)[C@H](Cc3c[nH]c4ccccc34)NS(=O)(=O)c3ccc(C)cc3)on2)cc1` [Compound 126, (S)-3-(1H-indol-3-yl)-N-(3-(4-methoxyphenyl)isoxazol-5-yl)-2-(4-methylphenylsulfonamido)propanamide] was tested, and the “Cell Viability (% inhibition) (A549)” value was 85.53 ± 0.66%. For `Cc1ccc(S(=O)(=O)N[C@@H](CO)C(=O)Nc2ccc(N3CCOCC3)cc2)cc1` [Compound 130, (S)-3-Hydroxy-2-(4-methylphenylsulfonamido)-N-(4-morpholinophenyl)propanamide], the “Cell Viability (% inhibition) (A549)” value was 16.62 ± 10.08%. In the case of `Cc1ccc(S(=O)(=O)N[C@H](C(=O)Nc2ccc(N3CCOCC3)cc2)C(C)C)cc1` [Compound 131, (S)-3-Methyl-2-(4-methylphenylsulfonamido)-N-(4-morpholinophenyl)butanamide], the “Cell Viability (% inhibition) (A549)” value is reported as 5.78 ± 7.70%. For `O=C(Nc1ccccc1)N[C@@H](Cc1c[nH]c2ccccc12)C(=O)N1CCOCC1` [Compound 132, (S)-1-(3-(1H-indol-3-yl)-1-morpholino-1-oxopropan-2-yl)-3-phenylurea], the “Cell Viability (% inhibition) (A549)” value was −11.18 ± 5.31%. With `Cc1ccc(S(=O)(=O)N[C@@H](Cc2c[nH]c3ccccc23)C(=O)Nc2ccc(N3CCOCC3)nc2)cc1` [Compound 133, (S)-3-(1H-indol-3-yl)-2-(4-methylphenylsulfonamido)-N-(6-morpholinopyridin-3-yl)propanamide] the “Cell Viability (% inhibition) (A549)” value was 6.18 ± 6.05%. In the case of `N#Cc1ccc(S(=O)(=O)N[C@@H](Cc2c[nH]c3ccccc23)C(=O)Nc2ccc(N3CCOCC3)cc2)cc1` [Compound 135, (S)-2-(4-Cyanophenylsulfonamido)-3-(1H-indol-3-yl)-N-(4-morpholinophenyl)propanamide], the “Cell Viability (% inhibition) (A549)” value is reported as 55.02 ± 1.06%. `O=C(Nc1ccc(N2CCOCC2)cc1)[C@H](Cc1c[nH]c2ccccc12)NS(=O)(=O)c1ccc(C(F)(F)F)nc1` [Compound 136, (S)-3-(1H-indol-3-yl)-N-(4-morpholinophenyl)-2-(6-(trifluoromethyl)pyridine-3-sulfonamido)propanamide] was tested, and the “Cell Viability (% inhibition) (A549)” value was 87.12 ± 2.3%. For `COC(=O)CC[C@@H](C(=O)Nc1ccc(N2CCOCC2)cc1)N(C)S(=O)(=O)c1ccccc1` [Compound 137, (S)-Methyl 4-(methylphenylsulfonamido)-5-(4-morpholinophenylamino)-5-oxopentanoate], the “Cell Viability (% inhibition) (A549)” value was 17.75 ± 5.15%. In the case of `Cc1ccc(S(=O)(=O)N[C@@H](Cn2cnc3ccccc32)C(=O)Nc2ccc(N3CCOCC3)cc2)cc1` [Compound 138, (S)-3-(1H-benzo[d]imidazol-1-yl)-2-(4-methylphenylsulfonamido)-N-(4-morpholinophenyl)propanamide], the “Cell Viability (% inhibition) (A549)” value is reported as 14.63 ± 1.98%.
